Source: paper PMC4853715, “Design, Synthesis and Antitumor Activity of Novel link-bridge and B-Ring Modified Combretastatin A-4 (CA-4) Analogues as Potent Antitubulin Agents” (Scientific Reports, 2016)

Tests used:
[1] = Body weight of treated xenograft mice; format: in vivo, BALB/c nude mice; details: whole treatment period
Experimental: Male BALB/c nude mice, five weeks old and weighing 18–22 g, were supplied by Shanghai Laboratory Animal Limited Company. The mice were raised in air-conditioned rooms under controlled lighting (12 h light-dark cycle at 24 °C) and were fed with standard laboratory food and water ad libitum. Before injection into the mice, the A549 cells were harvested by trypsinization and washed three times with cold serum-free medium and then injected in a total volume of 0.1 mL using a 1 mL latex-free syringe (BD) within 30 min of harvest. Mice were inoculated subcutaneously with A549 cells (5.0 × 10^6) on their shoulders. […] The control group received 0.9% normal saline. Tumor size was measured once every 2 days in two per-pendicular dimensions with Vernier calipers and converted to tumor volume (TV) using the formula: (ab^2)/2, where a and b refer to the longer and shorter dimensions, respectively. The body weight of the animals was measured twice a week to assess toxicity of the treatments at the same time as the tumor dimension measurement and the mortality was monitored daily. After the treatments for eight weeks, the animals were euthanized by cervical dislocation. This study conformed to the Guide for the Care and Use of Laboratory Animals as published by the US National Institutes of Health and was approved by the Institutional Ethics Review Board of Nanjing University.

[2] = test system: interphase microtubules of A549 cells; assay: Confocal microscopy assay of microtubule morphology; format: cell-based, human; details: A549, 1.0 μM, 48 h
Experimental: After incubating for 48 h, A549 cells were washed with PBS for three times and fixed with 4% paraformaldehyde for 20 min, permeabilized with cold methanol for another 10 min. After that, the cells were blocked with 5% BSA for 1 h. Subsequently, the cells were washed with PBS, and incubated with anti-tubulin antibody in 3% BSA (1:200 Cytoskeleton, Inc.) overnight at 4 °C. After being washed with PBS for three times, each cover slip was added 200 μL of Cy3-labeled goat anti-mouse IgG (H + L) in 3% BSA (1:500, Cytoskeleton, Inc.) and incubated for 1 h at room temperature. At last, A549 cells was stained with 200 μL of DAPI for 5 min and observed under an confocal microscope (Olympus, USA).

[3] = test system: Bax, PARP, Bcl-2, Caspase3 in A549 cells; assay: Western blot of apoptosis-related proteins; format: cell-based, human
Experimental: Total cellular proteins are extracted with lysis buffer (50 mmol/l Tris [pH 7.4], 150 mmol/l NaCl, 1% Triton X-100, 1% deoxycholicphenyl methylsulfonyl fluoride, 1 mg/ml aprotinin, 5.0 mmol/l sodium pyrophosphate, […] leupeptin, 0.1 mmol/l phenylmethylsulfonyl fluoride, and 1 mmol/l DTT). Protease inhibitors are added immediately before use. The cells are harvested at the end of treatment and extracted for western blot analysis as described previously. After washing twice with PBS, the cultured cells were collected and lysed in lysis buffer (100 mmol/l Tris-Cl, pH 6.8, 4% (m/v) SDS, 20% (v/v) glycerol, 200 mmol/l β-mercaptoethanol, 1 mmol/l phenylmethylsulfonyl fluoride, and […] aprotinin). The lysates were centrifuged at 13,000 × g for 15 min at 4 °C. The concentration of total proteins was measured using the BCA assay method with Varioskan spectrofluorometer and spectrophotometer (Thermo) at 562 nm. Protein samples were separated with 15% SDS-PAGE and transferred onto the polyvinyldifluoride (PVDF) membranes (Millipore, IPVH 304 F0). Immune complexes were formed by incubation of proteins with primary antibodies overnight at 4 °C followed by IRDye^TM 800 conjugated second antibody for 1 hour at 37 °C. Immunoreactive protein bands were detected with an Odyssey Scanning System (LI-COR Biosciences, 9201-03). Antibodies: primary antibodies of cyclin B1, Cdc2, p-Cdc2 (Thr14/Tyr15), Cdc25C, and p21WAF1/Cip1 were all obtained from EPITOMICS (Abcam, Cambridge, UK); antibodies of Bax and Bcl-2 were obtained from Bioworld (Bioworld Technology, Inc., MN, USA); antibodies of caspase-3, and PARP were all obtained from Santa Cruz (Santa Cruz, CA); and antibody of GAPDH was from Boster (Wuhan, China). The secondary antibodies peroxidase-conjugated affinipure Goat Anti-Mouse IgG (H + L) (111-035-003), peroxidase-conjugated affinipure Goat Anti-Rabbit IgG (H + L) (111-035-003) were obtained from Jackson Immuno Research Laboratories, Inc. (USA).

[4] = test system: HepG2, Hela, MCF-7, A549, HT-29 and SSC-4 cell lines; assay: MTT assay, panel of six cancer cell lines; format: cell-based; details: Homo sapiens; range over six cell lines; read-out: IC50 values against a panel of cancer cell lines
Experimental: (§1) The in vitro anticancer activities of the prepared compounds against HepG2, Hela, MCF-7, A549, HT-29 and SSC-4 cell lines were evaluated as described in the literature. Target tumor cells were grown to log phase in DMEM medium supplemented with 10% fetal bovine serum. After reaching a dilution of 1 × 10^5 cells Ml^−1 with the medium, 100 μL of the obtained cell suspension was added to each well of 96-well culture plates. Subsequently, incubation was performed at 37 °C in 5% CO2 atmosphere for 12 h before the cytotoxicity assessment. Tested samples at preset concentrations were added to 6 wells with CA-4 being employed as a positive reference. After 48 h exposure period, 25 μL of PBS containing 2.5 mg mL^−1 of MTT (Sigma, USA) was added to each well. After 4 h, the medium was replaced by 150 μL DMSO to dissolve the purple formazan crystals produced. The absorbance at 570 nm of each well was measured with Synergy™ 2 Multi-Mode Microplate Reader. Cell viability (%) was calculated using the following equation: cell viability (%) = (Atreatment/Acontrol) × 100%. The data represented the mean of three independent experiments in triplicate and were expressed as means ± SD.

[5] = test system: Bovine brain tubulin; assay: Effects on tubulin polymerization (turbidimetric assembly); format: biochemical; details: 10 μM tubulin, 30 °C, 20 min incubation; read-out: Tubulin inhibition IC50
Experimental: Bovine brain tubulin was purified as described previously. To evaluate the effect of the compounds on tubulin assembly in vitro, compounds of varying concentrations were preincubated with 10 μM tubulin in glutamate buffer at 30 °C and then cooled to 0 °C. After addition of GTP, the mixtures were transferred to 0 °C cuvettes in a recording BioTek Synergy 4 multifunction microplate spectrophotometer and warmed up to 30 °C and the assembly of tubulin was observed turbidimetrically (TU660, USA).

[6] = test system: MCF-7; assay: MTT assay, antiproliferative activity; format: cell-based; details: Homo sapiens, MCF7; MCF-7, MTT, 48 h, ± SD
Experimental: as §1

[7] = test system: SSC-4; assay: MTT assay, antiproliferative activity; format: cell-based; details: Homo sapiens; SSC-4, MTT, 48 h, ± SD
Experimental: as §1

[8] = test system: A549; assay: MTT assay, antiproliferative activity; format: cell-based; details: Homo sapiens, 48 h, ± SD
Experimental: as §1

[9] = test system: HepG2; assay: MTT assay, antiproliferative activity; format: cell-based; details: Homo sapiens, 48 h, ± SD
Experimental: as §1

In the case of COc1cc(/C=N/NC(=O)c2cn(Cc3ccccc3)c3ccccc23)cc(OC)c1OC [Compound 7], the “body weight changes during treatment” value [1] is reported as “no significant weight changes”, the microtubule morphology [2] is reported as “disorganized interphase microtubules” and the “level of Bax” value ([3]; A549, 0.5, 1 and 2 μM, 48 h) is reported as “efficiently up-regulated”. For the same compound, the “level of anti-apoptotic proteins (Bcl-2, Bcl-xl)” value ([3]; A549, 0.5, 1 and 2 μM, 48 h) was “down-regulated”, the “cleaved caspase-3 and PARP” value ([3]; A549, 48 h) was “up regulation” and the IC50 [4] was 80 to 35600 nM. For the same compound, the IC50 [5] was 4460 nM, the IC50 [6] was 640 ± 110 nM and the IC50 [7] was 35600 ± 1910 nM. For the same compound, the IC50 [8] was 80 ± 10 nM and the IC50 [9] was 630 ± 120 nM.
